Where a name gives a salt, the structure may show the parent alone.

A word on the IC50: it is the concentration that gives 50% inhibition.

The subject of the assay is TEAD-dependent transcription. Nature of the assay: Inhibitor activity against TEAD-dependent transcription in a cell-based reporter assay (MSTO-211H+12XGTIIC luciferase). The note with it: Homo sapiens; MSTO-211H+12XGTIIC cells, 24 hours incubation, luciferase luminescence normalized to cell viability fluorescence, geometric mean; read-out: MSTO-211H GMean IC50 (uM) Cell Assay Reporter Cell Variant: TEAD. Put shortly:
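MSTO-211H mesothelioma cells stably carrying a 12xGTIIC TEAD-response-element luciferase reporter, treated with serial compound dilutions for 24 h at 37 °C. Luminescence normalized to CellTiter-Fluor viability signal; % inhibition versus DMSO and 20 μM K-975 controls, IC50 by nonlinear regression.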
For orientation: Reporter assays use an easily measured gene product as a stand-in for the process of interest.
Take `C=CC(=O)N1CCc2ccc(O[C@H]3C[C@@H]4[C@H](C3)C4(F)F)cc2C1` [P-0075, 1-(7-(((1R,3r,5S)-6,6-difluorobicyclo[3.1.0]hexan-3-yl)oxy)-3,4-dihydroisoquinolin-2(1H)-yl)prop-2-en-1-one]: the IC50 was in the range of 0.001 to 0.5 µM. In the case of `C=CC(=O)N1CCc2ccc(Oc3ccc(C(F)(F)F)cn3)cc2C1` [P-0053, 1-(7-((5-(trifluoromethyl)pyridin-2-yl)oxy)-3,4-dihydroisoquinolin-2(1H)-yl)prop-2-en-1-one formate] it was 0.001 to 0.5 µM; in that of `C=CC(=O)N1CCc2ccc(OCc3cc(C)on3)cc2C1` [P-0081, 1-(7-((5-methylisoxazol-3-yl)methoxy)-3,4-dihydroisoquinolin-2(1H)-yl)prop-2-en-1-one], greater than 20 µM; in that of `C=CC(=O)N1CCc2ccc(OCC3CC(F)(F)C3)cc2C1` [P-0107, 1-(7-((3,3-difluorocyclobutyl)methoxy)-3,4-dihydroisoquinolin-2(1H)-yl)prop-2-en-1-one], 0.001 to 0.5 µM.

With `C=CC(=O)N1CCc2ccc(Cc3ccccc3)cc2C1` [P-0033, 1-(7-benzyl-3,4-dihydroisoquinolin-2(1H)-yl)prop-2-en-1-one], the IC50 lay in the range of 0.001 to 0.5 µM. Under `C=C(F)C(=O)N1CCc2ccc(Oc3ccc(C(F)(F)F)nc3)cc2C1` [P-0051, 2-fluoro-1-(7-((6-(trifluoromethyl)pyridin-3-yl)oxy)-3,4-dihydroisoquinolin-2(1H)-yl)prop-2-en-1-one] stands 0.001 to 0.5 µM; under `O=C(/C=C/CN1CCOCC1)N1CCc2ccc(Oc3ccc(C(F)(F)F)cc3)cc2C1` [P-0120, (E)-4-morpholino-1-(7-(4-(trifluoromethyl)phenoxy)-3,4-dihydroisoquinolin-2(1H)-yl)but-2-en-1-one], 0.5 to 20 µM.

For the origin of these results see US20240174659A1, “COMPOUNDS AND METHODS FOR YAP/TEAD MODULATION AND INDICATIONS THEREFOR” (Opna Bio SA, priority 2021, published 2024).
